Measured values as given in patent US20190350964A1, “ANTI-CANCER COMPOUNDS AND USES THEREOF” (NATIONAL UNIVERSITY OF SINGAPORE, priority 2016, published 2019).

How the values were obtained:
[1] = target: T1, Liprin-beta-1 (Homo sapiens, UniProt Q86W92); assay: MS-CETSA in normal BJ cell lysates; type: binding; details: lysate, 100 μM compound
T1 construct: After collecting data covering >8,000 proteins in lysates of normal BJ cells; endogenous in cells; host or cells: normal BJ cells, lysate
Method: (§1) Target identification was performed by cellular thermal shift assay (CETSA) coupled with quantitative mass spectrometry. In brief, normal BJ cells were lysed by combination of freeze/thaw and mechanical shearing with needle in buffer [50 mM HEPES (pH 7.5), 5 mM β-glycerophosphate, 0.1 mM Sodium Vanadate, 10 mM MgCl2, 1 mM TCEP and 1× Protease inhibitor Cocktail]. The cell debris was removed by centrifugation at 20,000 g for 20 min at 4° C. […] Each lysate was divided into 10 aliquots for heat treatment at the respective temperatures for 3 min in a 96-well thermocycler, followed by 3 min at 4° C. The lysate was centrifuged at 20,000 g for 20 min at 4° C. and the supernatant was transferred into microtubes for MS sample preparation.
(§2) After lysis, at least 100 μg of the protein (measured with a BCA assay) was subjected to reduction, denaturation and alkylation. Samples were subsequently incubated with sequencing grade LysC (Wako) and trypsin (Promega) for digestion overnight at 37° C. The digested samples were dried using a centrifugal vacuum evaporator, solubilized in 100 mM TEAB. […]
(§3) Proteins for which a low temperature plateau was not present were deleted using a cut off >0.85 for the average reading of the first three temperature points (in our experience proteins melting already at −37° C. are more prone to give false positives in a shift analysis).

[2] = test system: Hep3; assay: MTT cytotoxicity test (GI50); type: cell-based; details: Homo sapiens; Hep3, cancer, liver; MTT 72 h
[3] = test system: PI5P4Ks; assay: Cellular PI5P4Ks activity assay in HeLa cells (PIP4KII Activity Assay Kit); type: cell-based, human; details: HeLa cells treated 24 h, lysate assayed with PI(5)P; read-out: IC50, combined cellular PI5P4Ks
Method: HeLa cells were treated with DMSO or compounds for 24 h. Cells were lysed with RIPA buffer (Sigma-Aldrich), and total protein concentrations were measured using a bicinchoninic acid protein assay kit (Thermo Scientific). Next, 10 μg of cell lysate was incubated with 1 μM PI(5)P and 500 nM ATP for 1 h at 37° C. PI5P4K activity was measured by recording luminescent signals (Tecan) using a PIP4KII Activity Assay Kit (Echelon) according to the manufacturer's instructions. For cell-free PI5P4Kα activity assays, serial dilutions of compounds were pre-incubated with 1 ng of PI5P4Kα (kind gift from Daiichi Sankyo Co., Ltd. and Daiichi Sankyo RD Novare Co., Ltd.) in reaction buffer [50 mM HEPES (pH 7.0), 13 mM MgCl2, 0.005% CHAPS, 0.01% BSA, 2.5 mM DTT] for 1 h at 25° C. DOPS (80 μM, Avanti polar lipids), PI(5)P (20 μM, Echelon) and ATP (10 μM, Sigma-Aldrich) were added and further incubated for 90 min at room temperature. PI5P4Kα activity was measured by recording luminescent signals (Tecan) using an ADP-Glo Kinase Assay (Promega) according to the manufacturer's protocol.

[4] = target: T2, Arsenite methyltransferase (Homo sapiens, UniProt Q9HBK9); assay: MS-CETSA in normal BJ cell lysates; type: binding; details: lysate, 100 μM compound
T2 construct: After collecting data covering >8,000 proteins in lysates of normal BJ cells; endogenous in cells; host or cells: normal BJ cells, lysate
Method: as §1, §2, §3

[5] = test system: normal BJ cells; assay: γ-H2AX immunofluorescence (DNA damage); type: cell-based, human; details: 48 h; a131 2.5 and 5 μM, etoposide 100 μM
Method: For immunofluorescence analysis, cells grown on coverglass-bottom chamber slides (Lab-Tek) were fixed with 4% PFA (paraformaldehyde) for 15 min at 25° C. The fixed cells were permeabilized with 0.5% Triton X-100 and exposed to TBS containing 0.1% Triton X-100 and 2% BSA (AbDil). The following primary antibodies were diluted in PBS containing 1% BSA and 0.1% Triton X-100: anti-γ-tubulin (Sigma-Aldrich, #T6557; 1:1000) and anti-β-tubulin (Abcam, #ab18207; 1:2000). […] Cells were counterstained with DAPI (Thermo Scientific). […] For time-lapse live-cell analysis, a Stage Top Incubator with Digital CO2 mixer (Tokai) was used, and images were acquired at 37° C.

[6] = test system: DLD1; assay: MTT cytotoxicity test (GI50); type: cell-based; details: Homo sapiens, DLD-1; DLD1, cancer, colon; MTT 72 h
[7] = test system: normal BJ cells; assay: BrdU incorporation / cell growth arrest; type: cell-based, human
Method: Cell death was assessed via Annexin V and/or PI (propidium iodide) staining according to the manufacturer's instructions (eBioscience). Cell growth arrest was assessed by direct measurement of DNA synthesis through incorporation of the nucleoside analog bromodeoxyuridine (BrdU). Briefly, BrdU (30 μM, Sigma-Aldrich) was added for 2 h before harvesting cells. Cells were subsequently stained with Pacific Blue-conjugated BrdU antibody (Invitrogen) for 1 h followed by PI staining. Stained cells were analyzed by MACSQuant (MACS). Three independent experiments were performed in triplicate. The percentage of Annexin V/PI- or BrdU-positive cells was quantified using Flow Jo software (Becton Dickinson). Where indicated, the combined activity of caspase-3/7 was determined using the caspase-Glo 3/7 Assay Kit (Promega) and normalized to the number of viable cells as determined by MTT assay.

[8] = target: T3, Coproporphyrinogen-III oxidase, mitochondrial (Homo sapiens, UniProt P36551); assay: MS-CETSA in normal BJ cell lysates; type: binding; details: lysate, 100 μM compound
T3 construct: After collecting data covering >8,000 proteins in lysates of normal BJ cells; endogenous in cells; host or cells: normal BJ cells, lysate
Method: as §1, §2, §3

[9] = target: T4, 3-hydroxybutyrate dehydrogenase type 2 (Homo sapiens, UniProt Q9BUT1); assay: MS-CETSA in normal BJ cell lysates; type: binding; details: lysate, 100 μM compound
T4 construct: After collecting data covering >8,000 proteins in lysates of normal BJ cells; endogenous in cells; host or cells: normal BJ cells, lysate
Method: as §1, §2, §3

[10] = target: T5, Delta(3,5)-Delta(2,4)-dienoyl-CoA isomerase, mitochondrial (Homo sapiens, UniProt Q13011); assay: MS-CETSA in normal BJ cell lysates; type: binding; details: lysate, 100 μM compound
T5 construct: After collecting data covering >8,000 proteins in lysates of normal BJ cells; endogenous in cells; host or cells: normal BJ cells, lysate
Method: as §1, §2, §3

[11] = test system: PIK3IP1; assay: qRT-PCR of PIK3IP1 mRNA in Ras- or Raf-mutant cancer cell lines; type: cell-based, human; details: 2.5 and 5 μM, 24 h; compared with normal cells
Method: […] human […] ID NO: 11, [NT] ID NO: 12), human […] ID NO: 13, [NT] ID NO: 14), human […] ID NO: 15, [NT] ID NO: 16) and human PIK3IP1 ([NT] ID NO: 17, [NT] ID NO: 18). The TATA-binding protein (TBP) gene was used for normalization. All PCR reactions were performed in triplicate.

[12] = test system: HGC27; assay: MTT cytotoxicity test (GI50); type: cell-based; details: Homo sapiens, HGC-27; HGC27, cancer, gastric; MTT 72 h
[13] = test system: NUGC3; assay: MTT cytotoxicity test (GI50); type: cell-based; details: Homo sapiens, NUGC-3; NUGC3, cancer, gastric; MTT 72 h
[14] = target: T6, RNA-binding protein 4 (Homo sapiens, UniProt Q9BWF3); assay: MS-CETSA in normal BJ cell lysates; details: lysate, 100 μM compound
T6 construct: After collecting data covering >8,000 proteins in lysates of normal BJ cells; endogenous in cells; host or cells: normal BJ cells, lysate
Method: as §1, §2, §3

[15] = target: T7, Retinal rod rhodopsin-sensitive cGMP 3′,5′-cyclic phosphodiesterase subunit delta (Homo sapiens, UniProt O43924); assay: MS-CETSA in normal BJ cell lysates; type: binding; details: lysate, 100 μM compound
T7 construct: After collecting data covering >8,000 proteins in lysates of normal BJ cells; endogenous in cells; host or cells: normal BJ cells, lysate
Method: as §1, §2, §3

[16] = test system: NCC19; assay: MTT cytotoxicity test (GI50); type: cell-based; details: Homo sapiens; NCC19, cancer, gastric; MTT 72 h
[17] = test system: human cancer cell lines; assay: MTT cytotoxicity test, panel of human cancer cell lines; type: cell-based; details: mean over panel of human cancer cell lines; MTT 72 h
[18] = test system: MCF7; assay: MTT cytotoxicity test (GI50); type: cell-based; details: Homo sapiens; MCF7, cancer, breast; MTT 72 h
[19] = test system: IMR90; assay: MTT cytotoxicity test (GI50); type: cell-based; details: Homo sapiens, IMR-90; IMR90, normal, lung; MTT 72 h
[20] = test system: human normal cell lines; assay: MTT cytotoxicity test, panel of human normal cell lines; type: cell-based; details: mean over panel of human normal cell lines; MTT 72 h
[21] = test system: IM95; assay: MTT cytotoxicity test (GI50); type: cell-based; details: Homo sapiens; IM95, cancer, gastric; MTT 72 h

T2 sequence (Q9HBK9 whole entry): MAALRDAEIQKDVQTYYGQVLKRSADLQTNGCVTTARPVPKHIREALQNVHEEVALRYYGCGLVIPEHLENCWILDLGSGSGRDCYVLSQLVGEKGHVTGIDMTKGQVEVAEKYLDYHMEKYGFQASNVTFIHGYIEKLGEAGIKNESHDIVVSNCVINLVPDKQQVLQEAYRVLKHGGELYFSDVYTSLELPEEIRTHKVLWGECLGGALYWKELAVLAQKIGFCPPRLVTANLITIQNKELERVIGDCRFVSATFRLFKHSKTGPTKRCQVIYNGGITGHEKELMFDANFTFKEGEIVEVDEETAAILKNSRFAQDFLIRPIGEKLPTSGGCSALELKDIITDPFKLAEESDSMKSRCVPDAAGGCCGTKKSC
T7 sequence (O43924 whole entry): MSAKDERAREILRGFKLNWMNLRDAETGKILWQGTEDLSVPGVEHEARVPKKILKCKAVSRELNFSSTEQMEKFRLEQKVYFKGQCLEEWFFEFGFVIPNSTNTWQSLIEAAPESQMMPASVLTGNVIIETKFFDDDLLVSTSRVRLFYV
T4 sequence (Q9BUT1 whole entry): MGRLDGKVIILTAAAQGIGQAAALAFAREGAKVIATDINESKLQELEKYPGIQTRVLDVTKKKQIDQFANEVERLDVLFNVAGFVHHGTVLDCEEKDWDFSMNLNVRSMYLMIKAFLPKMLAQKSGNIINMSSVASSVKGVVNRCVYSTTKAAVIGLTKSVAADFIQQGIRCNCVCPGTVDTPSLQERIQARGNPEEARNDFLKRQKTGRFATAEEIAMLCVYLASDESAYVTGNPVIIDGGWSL
T6 sequence (Q9BWF3 whole entry): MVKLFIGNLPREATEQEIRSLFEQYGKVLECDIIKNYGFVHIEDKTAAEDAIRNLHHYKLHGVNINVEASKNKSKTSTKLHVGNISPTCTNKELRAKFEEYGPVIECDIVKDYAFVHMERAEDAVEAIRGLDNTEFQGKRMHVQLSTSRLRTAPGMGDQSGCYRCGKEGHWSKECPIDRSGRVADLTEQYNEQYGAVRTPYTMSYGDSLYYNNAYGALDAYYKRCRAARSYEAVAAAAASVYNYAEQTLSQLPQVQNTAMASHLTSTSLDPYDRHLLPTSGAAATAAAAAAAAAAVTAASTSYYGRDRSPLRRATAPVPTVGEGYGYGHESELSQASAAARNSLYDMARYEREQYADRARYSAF
T3 sequence (P36551 111-454): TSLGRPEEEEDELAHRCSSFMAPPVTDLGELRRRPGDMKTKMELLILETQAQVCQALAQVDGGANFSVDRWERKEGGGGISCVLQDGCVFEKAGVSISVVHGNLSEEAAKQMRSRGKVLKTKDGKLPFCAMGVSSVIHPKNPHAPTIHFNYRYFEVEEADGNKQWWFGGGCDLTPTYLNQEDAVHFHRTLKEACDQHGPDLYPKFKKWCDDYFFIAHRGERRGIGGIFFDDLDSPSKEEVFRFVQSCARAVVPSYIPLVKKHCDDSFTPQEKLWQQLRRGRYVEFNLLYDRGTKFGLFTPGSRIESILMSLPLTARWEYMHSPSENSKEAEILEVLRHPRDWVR
T5 sequence (Q13011 34-328): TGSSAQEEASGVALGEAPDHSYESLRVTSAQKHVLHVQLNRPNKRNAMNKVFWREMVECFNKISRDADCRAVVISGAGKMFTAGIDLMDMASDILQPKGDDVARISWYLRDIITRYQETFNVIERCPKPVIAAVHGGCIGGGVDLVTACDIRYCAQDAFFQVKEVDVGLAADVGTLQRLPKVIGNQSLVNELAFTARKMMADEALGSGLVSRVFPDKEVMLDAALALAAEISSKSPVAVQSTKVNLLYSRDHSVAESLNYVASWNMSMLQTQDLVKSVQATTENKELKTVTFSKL
T1 sequence (Q86W92 whole entry): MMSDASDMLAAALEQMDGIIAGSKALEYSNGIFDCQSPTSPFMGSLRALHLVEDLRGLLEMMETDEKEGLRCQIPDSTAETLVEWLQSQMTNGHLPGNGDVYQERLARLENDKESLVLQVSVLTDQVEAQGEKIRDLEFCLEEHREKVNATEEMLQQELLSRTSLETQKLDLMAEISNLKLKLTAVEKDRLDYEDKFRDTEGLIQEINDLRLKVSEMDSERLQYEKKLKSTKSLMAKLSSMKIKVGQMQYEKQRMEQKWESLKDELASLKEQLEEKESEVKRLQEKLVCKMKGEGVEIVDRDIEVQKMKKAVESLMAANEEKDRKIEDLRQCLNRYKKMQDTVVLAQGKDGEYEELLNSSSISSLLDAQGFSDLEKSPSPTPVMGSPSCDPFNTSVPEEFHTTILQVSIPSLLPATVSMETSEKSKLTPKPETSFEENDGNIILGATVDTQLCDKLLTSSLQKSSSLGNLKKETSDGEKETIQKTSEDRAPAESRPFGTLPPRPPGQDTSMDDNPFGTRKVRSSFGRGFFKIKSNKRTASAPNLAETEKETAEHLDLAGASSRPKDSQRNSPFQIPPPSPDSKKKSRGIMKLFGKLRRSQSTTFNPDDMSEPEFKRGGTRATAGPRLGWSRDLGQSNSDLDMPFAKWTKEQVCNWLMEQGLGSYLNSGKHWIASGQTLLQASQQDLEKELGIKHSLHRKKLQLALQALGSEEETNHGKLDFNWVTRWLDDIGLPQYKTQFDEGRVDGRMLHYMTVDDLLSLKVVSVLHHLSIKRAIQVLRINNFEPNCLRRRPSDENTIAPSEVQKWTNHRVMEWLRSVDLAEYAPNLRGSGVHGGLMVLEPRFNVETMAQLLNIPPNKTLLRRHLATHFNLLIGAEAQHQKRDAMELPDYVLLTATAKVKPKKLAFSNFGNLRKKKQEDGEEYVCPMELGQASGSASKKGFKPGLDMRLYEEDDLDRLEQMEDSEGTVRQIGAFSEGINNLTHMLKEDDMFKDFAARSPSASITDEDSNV

N#C/C(=C\c1cccc2cnccc12)c1c[nH]c2ccccc12 [a131, (Z)-2-(1H-indol-3-yl)-3-(5-isoquinolyl)prop-2-enenitrile]
ED score [1]: 0.3387 | ΔTm at 100 µM ([1]; read-out: mean Delta Tm): 2.07 °C | GI50 [2]: 3700 nM | IC50 [3]: 600 nM | ED score [4]: 0.6214 | ΔTm at 100 µM ([4]; read-out: mean Delta Tm): 4.88 °C | DNA damage (γ-H2AX staining) [5]: did not do so | GI50 [6]: 1200 nM | cell cycle arrest (BrdU incorporation) ([7]; 2.5 μM, 48 h): arrested normal BJ cells at the G1/S phase of the cell cycle with few BrdU incorporation | reversibility of growth arrest after drug removal ([7]; 5 μM for 2 or 4 days, then fresh media up to 11 days): transient and reversible after a131 removal | ED score [8]: 0.3274 | ΔTm at 100 µM ([8]; read-out: mean Delta Tm): 1.61 °C | ED score [9]: 0.5139 | ΔTm at 100 µM ([9]; read-out: mean Delta Tm): 1.83 °C | ED score [10]: 0.3541 | ΔTm at 100 µM ([10]; read-out: mean Delta Tm): 1.51 °C | induction of PIK3IP1 in Ras- and Raf-mutant cancer cells [11]: significantly attenuated | GI50 [12]: 1200 nM | GI50 [13]: 1000 nM | ED score [14]: 0.3323 | ΔTm at 100 µM ([14]; read-out: mean Delta Tm): 1.88 °C | ED score [15]: 0.3092 | ΔTm at 100 µM ([15]; read-out: mean Delta Tm): 3.02 °C | GI50 [16]: 4600 nM | GI50 [17]: 1700 nM | GI50 [18]: 1200 nM | GI50 [19]: 5800 nM | GI50 [20]: 6500 nM | GI50 [21]: 1000 nM
